Results: patent US20200031793A1, “Synthesis of Thapsigargin, Nortrilobolide, and Analogs Thereof” (priority 2017, published 2020)

What was measured:
[1] = test system: sarco/endoplasmic reticulum Ca^2+-ATPases (SERCAs); settings: cited from earlier work; for inhibition of sarco/endoplasmic reticulum Ca^2+-ATPases (SERCAs): qualitative statement, no own test

melting point [°C]	Molecule	inhibition of sarco/endoplasmic reticulum Ca^2+-ATPases (SERCAs) [1]	inhibition of Sarco/endoplasmic reticulum Ca^2+-ATPase compared with thapsigargin (1) ([1]; relative to 1 (thapsigargin))
176.1 to 178.5	CC1=C2[C@@H]3OC(=O)[C@@](C)(O[Si](C)(C)C)[C@@]3(O)[C@H](OCc3ccccc3)C[C@](C)(O)[C@H]2C[C@H]1O[Si](C)(C)C(C)(C)C	–	–
–	C/C=C(/C)C(=O)O[C@@H]1C[C@H]2C(=C1C)[C@@H]1OC(=O)[C@@](C)(O)[C@@]1(O)[C@@H](OC(=O)CCC)C[C@]2(C)OC(C)=O [nortrilobolide]	potent inhibitor	equipotent inhibition
–	thapsigargin	highly selective subnanomolar inhibitor	–
